Measurements reported in patent publication US9366677B2, “Methods for analyzing biological macromolecular complexes and use thereof” (Max-Planck-Gesellshaft zur Foerderung der Wissenschaften …, priority 2011, dated 2016).
Entries after “also recorded” stand apart in the source; their conditions may differ.

Biological target: GroEL/GroES (Escherichia coli, UniProt P0A6F5)
Assay: Thermofluor (DSF) unfolding of equimolar GroEL/GroES with adenine nucleotides
Type: binding
Details: in the presence of the nucleotide
Description: In a next proof of principle for the validity of the method according to the present invention, it has been determined whether thermal unfolding was suitable to find small molecules, which stabilize molecular machines similarly as has been documented for single-domain proteins (Ericsson et al. 2006, Analytical Biochemistry, 357:289-298). For this the GroEL/GroES (homo-tetradecameric 800 kDa and homo-heptameric 70 kDa, respectively) chaperonin system has been analysed. Two important properties of the chaperonin system have been well documented in the literature (Sigler et al., 1998, Annual Reviews in Biochemistry, 67:581-608; Tang et al., 2006, Cell, 125:908-914). First, GroEL forms a double heptameric ring structure, which exposes hydrophobic residues on one face, where non-native substrate protein can bind. Second, the binding of adenine-nucleotides to GroEL induces a conformational change, which causes the previously exposed hydrophobic residues to be buried and is essential for GroES binding to one face of the GroEL double ring. Therefore, measurements according to the present invention of an equimolar GroEL/GroES should yield a high initial fluorescence owing to the solvent-exposed hydrophobic residues, which gradually decreases upon temperature ramping. […]

GroEL/GroES, sequence (P0A6F9 whole entry): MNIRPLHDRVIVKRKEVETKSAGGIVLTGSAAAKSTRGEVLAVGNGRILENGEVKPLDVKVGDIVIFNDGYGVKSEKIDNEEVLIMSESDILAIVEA
GroEL/GroES, sequence (P0A6F5 2-548): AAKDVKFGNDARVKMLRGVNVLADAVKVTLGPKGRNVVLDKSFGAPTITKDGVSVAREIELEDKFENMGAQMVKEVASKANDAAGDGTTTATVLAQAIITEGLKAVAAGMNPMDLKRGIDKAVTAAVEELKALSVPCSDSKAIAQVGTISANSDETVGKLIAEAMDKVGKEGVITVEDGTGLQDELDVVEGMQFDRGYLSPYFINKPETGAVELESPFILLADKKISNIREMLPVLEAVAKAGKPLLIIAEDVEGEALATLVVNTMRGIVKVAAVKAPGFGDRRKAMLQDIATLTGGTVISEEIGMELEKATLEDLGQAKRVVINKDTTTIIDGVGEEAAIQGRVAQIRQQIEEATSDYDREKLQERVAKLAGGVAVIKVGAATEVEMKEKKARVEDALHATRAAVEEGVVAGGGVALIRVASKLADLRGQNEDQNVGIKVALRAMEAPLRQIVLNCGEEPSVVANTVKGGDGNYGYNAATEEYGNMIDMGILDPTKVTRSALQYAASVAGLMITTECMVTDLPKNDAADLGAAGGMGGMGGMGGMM

Row | Compound | unfolding transition of GroEL/GroES (complex formation)
1 | Nc1ncnc2c1ncn2[C@@H]1O[C@H](COP(=O)(O)OP(=O)(O)OP(=O)(O)O)[C@@H](O)[C@H]1O [ATP] | complexes are formed; also recorded: single—apparent two-state—unfolding transition
2 | Nc1ncnc2c1ncn2[C@H]1C[C@H](O)[C@@H](COP(=O)(O)OP(=O)(O)OP(=O)(O)O)O1 [dATP] | complexes are formed; also recorded: single—apparent two-state—unfolding transition
